Results on twelve compounds are retold here after ChEMBL document CHEMBL2073937, “In vitro substrate identification studies for p-glycoprotein-mediated transport: species difference and predictability of in vivo results” (J Pharmacol Exp Ther, 2001).

Data set [1] has as its target T1, ATP-dependent translocase ABCB1 (Homo sapiens, UniProt P08183). As to the kind of experiment: TP_TRANSPORTER: transepithelial transport (basal to apical) in MDR1-expressing LLC-PK1 cells. Particulars: pig. It is filed as functional, cell-based.
In data set [2] the target is T2, ATP-dependent translocase ABCB1 (Mus musculus, UniProt P21447). As to the kind of experiment: TP_TRANSPORTER: transepithelial transport (basal to apical) in mdr1a-expressing LLC-PK1 cell. The format is functional, cell-based. Particulars: pig.
Data set [3] addresses T1, ATP-dependent translocase ABCB1. In words: TP_TRANSPORTER: cell accumulation in KB-3-1 and KB-V1 cells. To be noted: kb-3-1;kb-v1. The format is functional, cell-based.
For data set [4], the target named is T2, ATP-dependent translocase ABCB1. In words: TP_TRANSPORTER: increase in brain concentration in mdr1a(-/-) mouse. The format is functional, organism-based. To be noted: in vivo.
For data set [5] the target is unchanged. As to the kind of experiment: TP_TRANSPORTER: increase in plasma concentration in mdr1a(-/-) mouse. It is filed as functional, organism-based. Particulars: in vivo.
Data set [6] shares this target. As to the kind of experiment: TP_TRANSPORTER: no change in plasma concentration in mdr1a(-/-) mouse. It is filed as functional, organism-based. To be noted: in vivo.
Data set [7] has the same target. In words: TP_TRANSPORTER: no change in brain concentration in mdr1a(-/-) mouse. The format is functional, organism-based. To be noted: in vivo.

T2 sequence (P21447 whole entry): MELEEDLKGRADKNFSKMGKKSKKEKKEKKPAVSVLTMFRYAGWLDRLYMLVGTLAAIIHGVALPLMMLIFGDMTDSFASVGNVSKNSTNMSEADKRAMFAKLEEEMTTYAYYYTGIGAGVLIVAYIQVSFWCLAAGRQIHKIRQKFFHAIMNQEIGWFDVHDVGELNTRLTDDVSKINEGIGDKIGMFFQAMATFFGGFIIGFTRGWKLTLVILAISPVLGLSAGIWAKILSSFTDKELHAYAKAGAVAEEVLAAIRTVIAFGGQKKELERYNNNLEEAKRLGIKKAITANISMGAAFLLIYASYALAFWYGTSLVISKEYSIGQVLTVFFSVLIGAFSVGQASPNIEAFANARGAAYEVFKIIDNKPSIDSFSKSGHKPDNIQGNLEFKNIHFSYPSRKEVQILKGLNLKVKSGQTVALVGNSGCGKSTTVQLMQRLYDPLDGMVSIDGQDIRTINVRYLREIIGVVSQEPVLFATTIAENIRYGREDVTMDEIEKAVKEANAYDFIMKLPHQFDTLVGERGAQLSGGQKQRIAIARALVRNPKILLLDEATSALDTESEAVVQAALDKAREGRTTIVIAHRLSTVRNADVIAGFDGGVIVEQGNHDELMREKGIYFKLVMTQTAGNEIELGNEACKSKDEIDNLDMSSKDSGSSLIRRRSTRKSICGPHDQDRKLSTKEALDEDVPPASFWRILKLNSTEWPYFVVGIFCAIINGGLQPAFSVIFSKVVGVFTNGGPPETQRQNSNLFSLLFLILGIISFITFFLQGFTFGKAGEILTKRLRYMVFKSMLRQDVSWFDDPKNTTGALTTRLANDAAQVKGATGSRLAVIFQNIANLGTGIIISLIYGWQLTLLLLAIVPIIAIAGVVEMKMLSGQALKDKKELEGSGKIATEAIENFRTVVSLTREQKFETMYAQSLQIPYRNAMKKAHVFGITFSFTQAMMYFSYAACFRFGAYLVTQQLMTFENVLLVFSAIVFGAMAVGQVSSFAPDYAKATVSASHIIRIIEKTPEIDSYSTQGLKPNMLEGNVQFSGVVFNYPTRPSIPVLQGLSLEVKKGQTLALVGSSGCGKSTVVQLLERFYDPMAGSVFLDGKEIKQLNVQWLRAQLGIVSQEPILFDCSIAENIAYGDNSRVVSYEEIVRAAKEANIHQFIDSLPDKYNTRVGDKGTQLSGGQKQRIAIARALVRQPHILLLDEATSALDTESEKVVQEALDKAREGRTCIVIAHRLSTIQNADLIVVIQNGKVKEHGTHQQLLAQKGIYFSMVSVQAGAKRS
T1 sequence (P08183 whole entry): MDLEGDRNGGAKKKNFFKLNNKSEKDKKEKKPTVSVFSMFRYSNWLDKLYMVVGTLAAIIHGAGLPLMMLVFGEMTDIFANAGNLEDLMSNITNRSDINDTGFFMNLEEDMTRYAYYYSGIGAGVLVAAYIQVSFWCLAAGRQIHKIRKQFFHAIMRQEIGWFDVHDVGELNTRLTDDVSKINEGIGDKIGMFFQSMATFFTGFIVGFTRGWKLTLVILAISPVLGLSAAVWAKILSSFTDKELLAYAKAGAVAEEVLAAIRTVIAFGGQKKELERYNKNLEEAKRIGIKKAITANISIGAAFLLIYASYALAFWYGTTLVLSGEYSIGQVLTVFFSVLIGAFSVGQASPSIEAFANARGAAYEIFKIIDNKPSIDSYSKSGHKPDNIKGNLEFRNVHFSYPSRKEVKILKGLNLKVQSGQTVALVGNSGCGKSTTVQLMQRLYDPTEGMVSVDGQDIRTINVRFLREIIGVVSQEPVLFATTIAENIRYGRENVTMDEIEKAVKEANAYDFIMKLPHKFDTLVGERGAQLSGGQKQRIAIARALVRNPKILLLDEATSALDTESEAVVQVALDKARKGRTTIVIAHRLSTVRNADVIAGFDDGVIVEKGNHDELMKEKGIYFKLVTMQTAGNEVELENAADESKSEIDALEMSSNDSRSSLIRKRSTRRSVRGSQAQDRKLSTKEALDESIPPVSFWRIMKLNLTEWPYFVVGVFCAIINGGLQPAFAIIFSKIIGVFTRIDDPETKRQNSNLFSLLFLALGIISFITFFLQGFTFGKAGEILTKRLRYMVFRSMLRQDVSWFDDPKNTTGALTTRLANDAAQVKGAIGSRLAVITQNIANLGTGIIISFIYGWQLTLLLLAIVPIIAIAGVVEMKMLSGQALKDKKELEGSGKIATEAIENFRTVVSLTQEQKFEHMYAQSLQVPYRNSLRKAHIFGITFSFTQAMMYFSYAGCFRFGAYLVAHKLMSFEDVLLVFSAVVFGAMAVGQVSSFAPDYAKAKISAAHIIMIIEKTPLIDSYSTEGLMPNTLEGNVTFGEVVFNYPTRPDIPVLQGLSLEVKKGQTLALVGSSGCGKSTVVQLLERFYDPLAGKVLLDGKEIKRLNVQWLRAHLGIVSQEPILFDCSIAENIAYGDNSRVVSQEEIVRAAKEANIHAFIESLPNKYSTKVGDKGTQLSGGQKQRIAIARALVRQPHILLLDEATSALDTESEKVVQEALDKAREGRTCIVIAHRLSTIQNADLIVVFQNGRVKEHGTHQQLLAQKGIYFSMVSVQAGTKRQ

In the case of `CC[C@H](C)C[C@H](C)CCCCCCCCC(=O)N[C@H]1C[C@@H](O)[C@@H](NCCN)NC(=O)[C@@H]2[C@@H](O)CCN2C(=O)[C@H]([C@H](O)CCN)NC(=O)[C@H]([C@H](O)[C@@H](O)c2ccc(O)cc2)NC(=O)[C@@H]2C[C@@H](O)CN2C(=O)[C@H]([C@@H](C)O)NC1=O` [CASPOFUNGIN], the Activity result in data set [1], in data set [2] and in data set [3] was “is not a substrate [-]” in each case.
Take `C[C@H](N)c1ccc(N2CCC(c3nc(-c4cccc(C(F)(F)F)c4)c(-c4ccncc4)n3C)CC2)cc1.[O-][Cl+3]([O-])([O-])O`: the Activity result in data set [4], in data set [1], in data set [5], in data set [2] and in data set [3] was “substrate [+]” throughout.
Regarding `CN1C(=O)C(NC(=O)c2cc3ccccc3[nH]2)N=C(c2ccccc2)c2ccccc21` (racemic), the Activity result in data set [1], in data set [2] and in data set [3] was “is not a substrate [-]” in each case.
In the case of `CC(=O)[C@H]1CC[C@H]2[C@@H]3CCC4=CC(=O)CC[C@]4(C)[C@H]3CC[C@]12C` [PROGESTERONE], the Activity result in data set [1] was “substrate [+]”; in data set [2], “is not a substrate [-]”; in data set [3], “is not a substrate [-]”.
Regarding `CC(C)(C)NC(=O)[C@@H]1CN(Cc2cccnc2)CCN1C[C@@H](O)C[C@@H](Cc1ccccc1)C(=O)N[C@H]1c2ccccc2C[C@H]1O.O`, the Activity entry in data set [4], in data set [5], in data set [2] and in data set [3] was “substrate [+]” each time.
With `CC[C@]1(O)C[C@@H]2CN(CCc3c([nH]c4ccccc34)[C@@](C(=O)OC)(c3cc4c(cc3OC)N(C)[C@H]3[C@@](O)(C(=O)OC)[C@H](OC(C)=O)[C@]5(CC)C=CCN6CC[C@]43[C@@H]65)C2)C1` [VINBLASTINE], the Activity result in data set [4], in data set [5] and in data set [3] was “substrate [+]” throughout.
Take `C[C@@H](O)[C@H]1C(=O)N2C(C(=O)[O-])=C(S[C@@H]3CN[C@H](C(=O)Nc4cccc(C(=O)O)c4)C3)[C@H](C)[C@H]12.O.[Na+]`: the Activity entry in data set [1], in data set [2] and in data set [3] was “is not a substrate [-]” each time.
For `CN1C(=O)CN=C(c2ccccc2)c2cc(Cl)ccc21` [DIAZEPAM], the Activity result in data set [6], in data set [1], in data set [7], in data set [2] and in data set [3] was “is not a substrate [-]” each time.
`Cc1cccc(NC(=O)NC2N=C(c3ccccc3)c3ccccc3N(C)C2=O)c1` (centres undefined): the Activity result in data set [4], in data set [1], in data set [5], in data set [2] and in data set [3] was “substrate [+]” each time.
For `N#Cc1ccc(Cn2cncc2CN2CCN(c3cccc(Cl)c3)C(=O)C2)cc1` [L-778123 FREE BASE], the Activity result in data set [1], in data set [2] and in data set [3] was “substrate [+]” throughout.
Take `Cc1nc(N)ccc1CNC(=O)Cn1c(C)cnc(NCCc2ccccc2)c1=O.Cl.Cl.O`: the Activity entry in data set [1], in data set [2] and in data set [3] was “substrate [+]” in each case.
In the case of `CC(C)(C)NC(=O)[C@@H]1CN(Cc2cc3ccccc3o2)CCN1[C@@H](Cc1ccccc1)[C@@H](O)C[C@@H](Cc1ccccc1)C(=O)NC1c2ccccc2C[C@H]1O` (some centres undefined), the Activity entry in data set [4], in data set [5], in data set [2] and in data set [3] was “substrate [+]” in each case.
